Experiments:
Test in all cases: growth inhibition relative to DMSO control (fraction); higher = stronger growth inhibition
Settings in all cases: treatment time: 6 days
MKL-1 = test system: MKL-1
Procedure: (§1)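 Drug combination matrices: GSK-LSD1 (0, 1, 10, 100 nM) was combined with a second epigenetic drug (0 to 10 uM) on MCC lines PeTa and MKL-1 and on HDFB fibroblasts for 6 days, in quadruplicate. Viability was read by CellTiter-Glo 2.0. The response is the fraction of growth inhibition relative to DMSO, as input to synergyfinder Bliss analysis.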

PeTa = test system: PeTa
Procedure: as §1

HDFB = test system: HDFB
Procedure: as §1

c1ccc([C@@H]2C[C@H]2NC2CCNCC2)cc1 [GSK-LSD1] + Cc1cc2c(cc1N1C(=O)c3cccc4c(CCCO)ccc(c34)C1=O)n(C)c(=O)n2C [BAY299]
growth inhibition
Settings | partner concentration 0 nM | partner concentration 1 nM | partner concentration 10 nM | partner concentration 100 nM | partner concentration 1000 nM | partner concentration 10000 nM
HDFB, GSK-LSD1 concentration 0 nM | – | -0.0107 | -0.0132 | 0.0763 | 0.607 | 0.697
HDFB, GSK-LSD1 concentration 1 nM | -0.0232 | -0.0193 | 0.0121 | 0.0867 | 0.635 | 0.702
HDFB, GSK-LSD1 concentration 10 nM | 0.076 | 0.0719 | 0.0472 | 0.207 | 0.674 | 0.727
HDFB, GSK-LSD1 concentration 100 nM | 0.0758 | 0.0715 | 0.0856 | 0.201 | 0.695 | 0.713
MKL-1, GSK-LSD1 concentration 0 nM | – | 0.0343 | -0.000673 | 0.0416 | 0.844 | 0.999
MKL-1, GSK-LSD1 concentration 1 nM | 0.104 | 0.0952 | 0.0872 | 0.0914 | 0.936 | 0.999
MKL-1, GSK-LSD1 concentration 10 nM | 0.516 | 0.425 | 0.457 | 0.475 | 0.972 | 1
MKL-1, GSK-LSD1 concentration 100 nM | 0.753 | 0.738 | 0.69 | 0.722 | 0.981 | 1
PeTa, GSK-LSD1 concentration 0 nM | – | -0.0148 | -0.062 | 0.00688 | 0.806 | 0.998
PeTa, GSK-LSD1 concentration 1 nM | -0.0592 | -0.0708 | -0.0758 | 0.0174 | 0.764 | 0.997
PeTa, GSK-LSD1 concentration 10 nM | 0.258 | 0.223 | 0.194 | 0.304 | 0.836 | 0.999
PeTa, GSK-LSD1 concentration 100 nM | 0.749 | 0.743 | 0.723 | 0.736 | 0.989 | 0.999

c1ccc([C@@H]2C[C@H]2NC2CCNCC2)cc1 [GSK-LSD1] + Cc1sc2c(c1C)C(c1ccc(Cl)cc1)=N[C@@H](CC(=O)OC(C)(C)C)c1nnc(C)n1-2 [(+)-JQ1]
growth inhibition
Settings | partner concentration 0 nM | partner concentration 1 nM | partner concentration 10 nM | partner concentration 100 nM | partner concentration 1000 nM | partner concentration 10000 nM
HDFB, GSK-LSD1 concentration 0 nM | – | -0.0405 | -0.0664 | 0.475 | 0.743 | 0.784
HDFB, GSK-LSD1 concentration 1 nM | 0.0649 | 0.0389 | 0.0119 | 0.469 | 0.75 | 0.796
HDFB, GSK-LSD1 concentration 10 nM | 0.0598 | 0.0402 | 0.0248 | 0.531 | 0.761 | 0.792
HDFB, GSK-LSD1 concentration 100 nM | 0.0941 | 0.0548 | 0.115 | 0.607 | 0.773 | 0.817
MKL-1, GSK-LSD1 concentration 0 nM | – | -0.032 | -0.0639 | 0.818 | 0.994 | 0.997
MKL-1, GSK-LSD1 concentration 1 nM | 0.00341 | -0.0162 | -0.0305 | 0.799 | 0.994 | 0.998
MKL-1, GSK-LSD1 concentration 10 nM | 0.349 | 0.33 | 0.364 | 0.849 | 0.999 | 1
MKL-1, GSK-LSD1 concentration 100 nM | 0.792 | 0.766 | 0.766 | 0.917 | 0.999 | 1
PeTa, GSK-LSD1 concentration 0 nM | – | -0.0721 | -0.114 | 0.804 | 0.95 | 0.976
PeTa, GSK-LSD1 concentration 1 nM | -0.00975 | -0.0422 | -0.106 | 0.67 | 0.945 | 0.968
PeTa, GSK-LSD1 concentration 10 nM | 0.536 | 0.522 | 0.489 | 0.848 | 0.975 | 0.995
PeTa, GSK-LSD1 concentration 100 nM | 0.819 | 0.765 | 0.749 | 0.925 | 0.995 | 0.998

c1ccc([C@@H]2C[C@H]2NC2CCNCC2)cc1 [GSK-LSD1] + Nc1ccccc1NC(=O)c1ccc(CNC(=O)OCc2cccnc2)cc1 [Entinostat]
growth inhibition
Settings | partner concentration 0 nM | partner concentration 1 nM | partner concentration 10 nM | partner concentration 100 nM | partner concentration 1000 nM | partner concentration 10000 nM
HDFB, GSK-LSD1 concentration 0 nM | – | 0.0329 | 0.154 | 0.451 | 0.823 | 0.933
HDFB, GSK-LSD1 concentration 1 nM | 0.0914 | 0.124 | 0.111 | 0.467 | 0.822 | 0.944
HDFB, GSK-LSD1 concentration 10 nM | 0.24 | 0.233 | 0.246 | 0.421 | 0.81 | 0.947
HDFB, GSK-LSD1 concentration 100 nM | 0.259 | 0.26 | 0.254 | 0.473 | 0.798 | 0.949
MKL-1, GSK-LSD1 concentration 0 nM | – | 0.0232 | 0.092 | 0.981 | 1 | 1
MKL-1, GSK-LSD1 concentration 1 nM | 0.121 | 0.169 | 0.164 | 0.956 | 1 | 1
MKL-1, GSK-LSD1 concentration 10 nM | 0.421 | 0.48 | 0.441 | 0.961 | 1 | 1
MKL-1, GSK-LSD1 concentration 100 nM | 0.761 | 0.745 | 0.649 | 0.958 | 1 | 1
PeTa, GSK-LSD1 concentration 0 nM | – | -0.000953 | 0.132 | 0.963 | 1 | 1
PeTa, GSK-LSD1 concentration 1 nM | 0.0344 | 0.0611 | 0.145 | 0.975 | 1 | 1
PeTa, GSK-LSD1 concentration 10 nM | 0.459 | 0.465 | 0.561 | 0.998 | 1 | 1
PeTa, GSK-LSD1 concentration 100 nM | 0.787 | 0.776 | 0.761 | 0.974 | 1 | 1

c1ccc([C@@H]2C[C@H]2NC2CCNCC2)cc1 [GSK-LSD1] + O=C(NC[C@H](O)CN1CCc2ccccc2C1)c1ccnc(NC2CCC2)c1 [GSK591]
growth inhibition
Settings | partner concentration 0 nM | partner concentration 1 nM | partner concentration 10 nM | partner concentration 100 nM | partner concentration 1000 nM | partner concentration 10000 nM
HDFB, GSK-LSD1 concentration 0 nM | – | -0.0108 | 0.034 | 0.242 | 0.285 | 0.348
HDFB, GSK-LSD1 concentration 1 nM | -0.00486 | 0.0263 | 0.00718 | 0.199 | 0.324 | 0.372
HDFB, GSK-LSD1 concentration 10 nM | 0.0391 | 0.0408 | 0.0239 | 0.215 | 0.342 | 0.42
HDFB, GSK-LSD1 concentration 100 nM | 0.0873 | 0.0906 | 0.093 | 0.285 | 0.355 | 0.44
MKL-1, GSK-LSD1 concentration 0 nM | – | 0.00697 | 0.0188 | 0.133 | 0.269 | 0.324
MKL-1, GSK-LSD1 concentration 1 nM | 0.144 | 0.148 | 0.163 | 0.253 | 0.423 | 0.432
MKL-1, GSK-LSD1 concentration 10 nM | 0.46 | 0.501 | 0.536 | 0.626 | 0.773 | 0.789
MKL-1, GSK-LSD1 concentration 100 nM | 0.733 | 0.769 | 0.754 | 0.771 | 0.894 | 0.849
PeTa, GSK-LSD1 concentration 0 nM | – | -0.0144 | -0.0251 | 0.0642 | 0.125 | 0.21
PeTa, GSK-LSD1 concentration 1 nM | 0.11 | 0.135 | 0.102 | 0.201 | 0.287 | 0.302
PeTa, GSK-LSD1 concentration 10 nM | 0.615 | 0.624 | 0.611 | 0.64 | 0.731 | 0.679
PeTa, GSK-LSD1 concentration 100 nM | 0.761 | 0.746 | 0.73 | 0.779 | 0.866 | 0.797

— the supplement of paper PMC7645387
